Laboratory results: ChEMBL document CHEMBL5500358, “Identification of CH2-linked quinolone-aminopyrimidine hybrids as potent anti-MRSA agents: Low resistance potential and lack of cross-resistance with fluoroquinolone antibiotics” (Eur J Med Chem, 2024)
Values after ≈ are worked out from the molar mass of the structure shown. Active and inactive are the calls of the source. The rule behind the calls is not given here.

Legend:
[1] = tested on: Escherichia coli; test: Antibacterial activity against Escherichia coli ATCC 25922 incubated for 16 to 18 hrs by absorbance based analysis; format: functional; conditions: time 16-18 hrs
[2] = tested on: Staphylococcus aureus; test: Antibacterial activity against fluoroquinolone-sensitive methicillin resistant Staphylococcus aureus ATCC 33591 incubated for 16 to 18 hrs by absorbance based analysis; format: functional; conditions: time 16-18 hrs
[3] = tested on: Staphylococcus aureus; test: Antibacterial activity against fluoroquinolone-sensitive methicillin resistant Staphylococcus aureus USA500 incubated for 16 to 18 hrs by absorbance based analysis; format: functional; conditions: time 16-18 hrs
[4] = tested on: Staphylococcus aureus; test: Antibacterial activity against fluoroquinolone/methicillin resistant Staphylococcus aureus Mu50 incubated for 16 to 18 hrs by absorbance based analysis; format: functional; conditions: time 16-18 hrs
[5] = Metabolic stability in rat liver microsomes assessed as compound remaining at 1 uM measured after 60 mins by LC-MS/MS analysis; format: ADME, Microsome; conditions: read-out: Stability
[6] = tested on: A549; test: Cytotoxicity against human A549 cells assessed as reduction in cell viability at 100 uM incubated for 24 hrs by CCK-8 assay; format: toxicity, cell-based; conditions: a549, 24 h
[7] = Metabolic stability in human liver microsomes assessed as drug elimination rate constant at 1 uM by LC-MS/MS analysis; format: ADME, Microsome
[8] = Metabolic stability in rat liver microsomes assessed as microsomal intrinsic clearance at 1 uM by LC-MS/MS analysis; format: ADME, Microsome; conditions: read-out: CLH
[9] = Metabolic stability in rat liver microsomes assessed as elimination half life at 1 uM by LC-MS/MS analysis; format: ADME, Microsome; conditions: read-out: beta t1/2
[10] = Metabolic stability in rat liver microsomes assessed as drug elimination rate constant at 1 uM by LC-MS/MS analysis; format: ADME, Microsome
[11] = Metabolic stability in human liver microsomes assessed as compound remaining at 1 uM measured after 60 mins by LC-MS/MS analysis; format: ADME, Microsome; conditions: read-out: Stability
[12] = Metabolic stability in human liver microsomes assessed as elimination half life at 1 uM by LC-MS/MS analysis; format: ADME, Microsome; conditions: read-out: beta t1/2
[13] = Metabolic stability in human liver microsomes assessed as liver intrinsic clearance at 1 uM by LC-MS/MS analysis; format: ADME, Microsome; conditions: read-out: CLH
[14] = Metabolic stability in rat liver microsomes assessed as liver intrinsic clearance at 1 uM by LC-MS/MS analysis; format: ADME, Microsome; conditions: read-out: CLH
[15] = tested on: HEK293; test: Cytotoxicity against HEK293 cells assessed as reduction in cell viability at 100 uM incubated for 24 hrs by CCK-8 assay; format: toxicity, cell-based; conditions: human, hek293, 24 h
[16] = Metabolic stability in human liver microsomes assessed as microsomal intrinsic clearance at 1 uM by LC-MS/MS analysis; format: ADME, Microsome; conditions: read-out: CLH
[17] = tested on: Staphylococcus aureus; test: Antibacterial activity against methicillin resistant Staphylococcus aureus ATCC 33591 measured after 15 passages; format: functional

| SMILES | MIC [1] | MIC [2] | MIC [3] | MIC [4] | also measured |
| --- | --- | --- | --- | --- | --- |
| Cc1cccc(Cc2ccnc(Nc3cc4c(cc3F)c(=O)c(C(=O)O)cn4C3CC3)n2)c1 | > 64 µg/mL | 4 µg/mL (≈ 9 µM) | – | – | – |
| N#Cc1ccccc1Cc1ccnc(Nc2cc3c(cc2F)c(=O)c(C(=O)O)cn3C2CC2)n1 | > 64 µg/mL | 8 µg/mL (≈ 17.6 µM) | – | – | – |
| COc1ccc(Cc2ccnc(Nc3cc4c(cc3F)c(=O)c(C(=O)O)cn4C3CC3)n2)cc1 | > 64 µg/mL | 4 µg/mL (≈ 8.69 µM) | – | – | – |
| O=C(O)c1cn(C2CC2)c2cc(Nc3nccc(Cc4ccc(F)c(F)c4)n3)c(F)cc2c1=O | > 64 µg/mL | 1 µg/mL (≈ 2.14 µM) | 6.25 µg/mL (≈ 13.4 µM) | 6.25 µg/mL (≈ 13.4 µM) | – |
| O=C(O)c1cn(C2CC2)c2cc(Nc3nccc(Cc4ccc(F)cc4F)n3)c(F)cc2c1=O | > 64 µg/mL | 1 µg/mL (≈ 2.14 µM) | 3.12 µg/mL (≈ 6.69 µM) | 3.12 µg/mL (≈ 6.69 µM) | – |
| Cc1ccc(Cc2ccnc(Nc3cc4c(cc3F)c(=O)c(C(=O)O)cn4C3CC3)n2)cc1 | > 64 µg/mL | 2 µg/mL (≈ 4.5 µM) | – | – | – |
| Cc1ccc(Cc2ccnc(Nc3ccc4c(=O)c(C(=O)O)cn(C5CC5)c4c3)n2)cc1C | > 64 µg/mL | 0.5 µg/mL (≈ 1.14 µM) | 0.78 µg/mL (≈ 1.77 µM) | 0.78 µg/mL (≈ 1.77 µM) | remaining at 1 h, 1 µM [5]: 49.6%; Activity [6]: Toxic; k el at 1 µM [7]: 0.000233 s⁻¹; microsomal CLint at 1 µM [8]: 23.4 µL/min/mg; half-life at 1 µM [9]: 59.2 min; k el at 1 µM [10]: 0.0002 s⁻¹; remaining at 1 h, 1 µM [11]: 41.1%; half-life at 1 µM [12]: 49.4 min; CLint scaled at 1 µM [13]: 26.6 mL/min/kg; CLint scaled at 1 µM [14]: 42.2 mL/min/kg; Activity [15]: Toxic; microsomal CLint at 1 µM [16]: 28.2 µL/min/mg |
| Cc1ccccc1Cc1ccnc(Nc2cc3c(cc2F)c(=O)c(C(=O)O)cn3C2CC2)n1 | > 64 µg/mL | 2 µg/mL (≈ 4.5 µM) | – | – | – |
| O=C(O)c1cn(C2CC2)c2cc(Nc3nccc(Cc4ccc(F)cc4)n3)c(F)cc2c1=O | > 64 µg/mL | 2 µg/mL (≈ 4.46 µM) | – | – | – |
| Cc1ccc(Oc2ccnc(Nc3ccc4c(=O)c(C(=O)O)cn(C5CC5)c4c3)n2)cc1C | > 64 µg/mL | 0.5 µg/mL (≈ 1.13 µM) | 0.39 µg/mL (≈ 0.881 µM) | 0.39 µg/mL (≈ 0.881 µM) | half-life at 1 µM [9]: 8.7 min; half-life at 1 µM [12]: 25.9 min |
| O=C(O)c1cn(C2CC2)c2cc(Nc3nccc(Cc4ccc(Cl)cc4)n3)ccc2c1=O | > 64 µg/mL | 0.5 µg/mL (≈ 1.12 µM) | 1.56 µg/mL (≈ 3.49 µM) | 1.56 µg/mL (≈ 3.49 µM) | – |
| O=C(O)c1cn(C2CC2)c2cc(Nc3nccc(Cc4ccc(Cl)cc4)n3)c(F)cc2c1=O | > 64 µg/mL | 1 µg/mL (≈ 2.15 µM) | 1.56 µg/mL (≈ 3.36 µM) | 3.12 µg/mL (≈ 6.71 µM) | – |
| Cc1ccc(Cc2ccnc(Nc3cc4c(cc3F)c(=O)c(C(=O)O)cn4C3CC3)n2)cc1C | > 64 µg/mL | 2 µg/mL (≈ 4.36 µM) | 25 µg/mL (≈ 54.5 µM) | 25 µg/mL (≈ 54.5 µM) | – |
| O=C(O)c1cn(C2CC2)c2cc(Nc3nccc(Cc4ccc(Cl)c(Cl)c4)n3)ccc2c1=O | > 64 µg/mL | 0.5 µg/mL (≈ 1.04 µM) | 1.56 µg/mL (≈ 3.24 µM) | 1.56 µg/mL (≈ 3.24 µM) | – |
| O=C(O)c1cn(C2CC2)c2cc(Nc3nccc(Cc4ccc(Cl)cc4Cl)n3)c(F)cc2c1=O | > 64 µg/mL | 0.5 µg/mL (≈ 1 µM) | 3.12 µg/mL (≈ 6.25 µM) | 3.12 µg/mL (≈ 6.25 µM) | – |
| Cc1ccc(Cc2ccnc(Nc3cc4c(cc3F)c(=O)c(C(=O)O)cn4C3CC3)n2)c(C)c1 | > 64 µg/mL | 1 µg/mL (≈ 2.18 µM) | 6.25 µg/mL (≈ 13.6 µM) | 6.25 µg/mL (≈ 13.6 µM) | – |
| C[C@H]1COc2c(N3CCN(C)CC3)c(F)cc3c(=O)c(C(=O)O)cn1c23 [LEVOFLOXACIN ANHYDROUS] | – | – | 0.2 µg/mL (≈ 0.553 µM) | 25 µg/mL (≈ 69.2 µM) | – |

| SMILES | MIC [1] | MIC [2] | MIC [3] | MIC [4] | also measured |
| --- | --- | --- | --- | --- | --- |
| O=C(O)c1cn(C2CC2)c2cc(Nc3nccc(Cc4ccc(Cl)cc4Cl)n3)ccc2c1=O | > 64 µg/mL | 0.25 µg/mL (≈ 0.519 µM) | 0.39 µg/mL (≈ 0.81 µM) | 0.78 µg/mL (≈ 1.62 µM) | – |
| O=C(O)c1cn(C2CC2)c2cc(Nc3nccc(Cc4ccccc4Cl)n3)c(F)cc2c1=O | > 64 µg/mL | 2 µg/mL (≈ 4.3 µM) | 6.25 µg/mL (≈ 13.4 µM) | 6.25 µg/mL (≈ 13.4 µM) | – |
| COc1ccccc1Cc1ccnc(Nc2cc3c(cc2F)c(=O)c(C(=O)O)cn3C2CC2)n1 | > 64 µg/mL | 4 µg/mL (≈ 8.69 µM) | – | – | – |
| CN[C@H](CC(C)C)C(=O)N[C@H]1C(=O)N[C@@H](CC(N)=O)C(=O)N[C@H]2C(=O)N[C@H]3C(=O)N[C@H](C(=O)N[C@H](C(=O)O)c4cc(O)cc(O)c4-c4cc3ccc4O)[C@H](O)c3ccc(c(Cl)c3)Oc3cc2cc(c3O[C@@H]2O[C@H](CO)[C@@H](O)[C@H](O)[C@H]2O[C@H]2C[C@](C)(N)[C@H](O)[C@H](C)O2)Oc2ccc(cc2Cl)[C@H]1O [VANCOMYCIN] | > 64 µg/mL | – | 0.78 µg/mL (≈ 0.538 µM) | 3.12 µg/mL (≈ 2.15 µM) | Activity [17]: inactive |
| O=C(O)c1cn(C2CC2)c2cc(Nc3nccc(Cc4ccc(F)c(F)c4)n3)ccc2c1=O | > 64 µg/mL | 0.5 µg/mL (≈ 1.12 µM) | 0.78 µg/mL (≈ 1.74 µM) | 1.56 µg/mL (≈ 3.48 µM) | – |
| O=C(O)c1cn(C2CC2)c2cc(Nc3nccc(Cc4ccccc4F)n3)c(F)cc2c1=O | > 64 µg/mL | 2 µg/mL (≈ 4.46 µM) | – | – | – |
| O=C(O)c1cn(C2CC2)c2cc(Nc3nccc(Cc4ccccc4Cl)n3)ccc2c1=O | > 64 µg/mL | 0.5 µg/mL (≈ 1.12 µM) | 3.12 µg/mL (≈ 6.98 µM) | 3.12 µg/mL (≈ 6.98 µM) | – |
| O=C(O)c1cn(C2CC2)c2cc(Nc3nccc(Cc4cccc(F)c4)n3)c(F)cc2c1=O | > 64 µg/mL | 2 µg/mL (≈ 4.46 µM) | – | – | – |
| O=C(O)c1cn(C2CC2)c2cc(N3CCNCC3)c(F)cc2c1=O [CIPROFLOXACIN] | – | 0.25 µg/mL (≈ 0.754 µM) | 0.39 µg/mL (≈ 1.18 µM) | – | – |
| O=C(O)c1cn(C2CC2)c2cc(Nc3nccc(Cc4cccc(Cl)c4)n3)ccc2c1=O | > 64 µg/mL | 0.5 µg/mL (≈ 1.12 µM) | 1.56 µg/mL (≈ 3.49 µM) | 1.56 µg/mL (≈ 3.49 µM) | – |
| Cc1ncc2n1-c1ccc(Cl)cc1C(c1ccccc1F)=NC2 [MIDAZOLAM] | – | – | – | – | remaining at 1 h, 1 µM [5]: 0.48%; k el at 1 µM [7]: 0.00417 s⁻¹; microsomal CLint at 1 µM [8]: 1350 µL/min/mg; half-life at 1 µM [9]: 2.58 min; k el at 1 µM [10]: 0.00448 s⁻¹; remaining at 1 h, 1 µM [11]: 0.691%; half-life at 1 µM [12]: 2.77 min; microsomal CLint at 1 µM [16]: 1250 µL/min/mg |
| O=C(O)c1cn(C2CC2)c2cc(Nc3nccc(Cc4cccc(Cl)c4)n3)c(F)cc2c1=O | > 64 µg/mL | 2 µg/mL (≈ 4.3 µM) | 6.25 µg/mL (≈ 13.4 µM) | 6.25 µg/mL (≈ 13.4 µM) | – |
| COc1cccc(Cc2ccnc(Nc3cc4c(cc3F)c(=O)c(C(=O)O)cn4C3CC3)n2)c1 | > 64 µg/mL | 8 µg/mL (≈ 17.4 µM) | – | – | – |
| O=C(O)c1cn(C2CC2)c2cc(Nc3nccc(Cc4ccccc4)n3)c(F)cc2c1=O | > 64 µg/mL | 4 µg/mL (≈ 9.29 µM) | – | – | – |
| O=C(O)c1cn(C2CC2)c2cc(Nc3nccc(Cc4ccc(Cl)c(Cl)c4)n3)c(F)cc2c1=O | > 64 µg/mL | 0.5 µg/mL (≈ 1 µM) | 6.25 µg/mL (≈ 12.5 µM) | 6.25 µg/mL (≈ 12.5 µM) | – |
| Cc1ccc(Cc2ccnc(Nc3ccc4c(=O)c(C(=O)O)cn(C5CC5)c4c3)n2)c(C)c1 | > 64 µg/mL | 1 µg/mL (≈ 2.27 µM) | 1.56 µg/mL (≈ 3.54 µM) | 1.56 µg/mL (≈ 3.54 µM) | – |
